pIC50: −log10 of the molar value.

The target of assay [1] is T1, Niemann-Pick C1-like 1 (NPC1L1) (Homo sapiens, UniProt Q9UHC9).
T1 construct: hNPC1L1 CDS (NM_001101648.2) with 3 × Flag tag at the 3′ end, stably expressed in Caco2 cells (hL1-Caco2)
In words: reference inhibitor; NPC1L1 inhibition in hL1-Caco2 cells (NBD-cholesterol uptake). The format is cell-based.

The target in assay [2] is T1, Niemann-Pick C1-like 1 (NPC1L1). The assay can be described thus: NBD-cholesterol uptake inhibition in hL1-Caco2 cells stably expressing human NPC1L1. It counts as cell-based.

T1 sequence (Q9UHC9 other isoform, or with tags, fused parts or gaps): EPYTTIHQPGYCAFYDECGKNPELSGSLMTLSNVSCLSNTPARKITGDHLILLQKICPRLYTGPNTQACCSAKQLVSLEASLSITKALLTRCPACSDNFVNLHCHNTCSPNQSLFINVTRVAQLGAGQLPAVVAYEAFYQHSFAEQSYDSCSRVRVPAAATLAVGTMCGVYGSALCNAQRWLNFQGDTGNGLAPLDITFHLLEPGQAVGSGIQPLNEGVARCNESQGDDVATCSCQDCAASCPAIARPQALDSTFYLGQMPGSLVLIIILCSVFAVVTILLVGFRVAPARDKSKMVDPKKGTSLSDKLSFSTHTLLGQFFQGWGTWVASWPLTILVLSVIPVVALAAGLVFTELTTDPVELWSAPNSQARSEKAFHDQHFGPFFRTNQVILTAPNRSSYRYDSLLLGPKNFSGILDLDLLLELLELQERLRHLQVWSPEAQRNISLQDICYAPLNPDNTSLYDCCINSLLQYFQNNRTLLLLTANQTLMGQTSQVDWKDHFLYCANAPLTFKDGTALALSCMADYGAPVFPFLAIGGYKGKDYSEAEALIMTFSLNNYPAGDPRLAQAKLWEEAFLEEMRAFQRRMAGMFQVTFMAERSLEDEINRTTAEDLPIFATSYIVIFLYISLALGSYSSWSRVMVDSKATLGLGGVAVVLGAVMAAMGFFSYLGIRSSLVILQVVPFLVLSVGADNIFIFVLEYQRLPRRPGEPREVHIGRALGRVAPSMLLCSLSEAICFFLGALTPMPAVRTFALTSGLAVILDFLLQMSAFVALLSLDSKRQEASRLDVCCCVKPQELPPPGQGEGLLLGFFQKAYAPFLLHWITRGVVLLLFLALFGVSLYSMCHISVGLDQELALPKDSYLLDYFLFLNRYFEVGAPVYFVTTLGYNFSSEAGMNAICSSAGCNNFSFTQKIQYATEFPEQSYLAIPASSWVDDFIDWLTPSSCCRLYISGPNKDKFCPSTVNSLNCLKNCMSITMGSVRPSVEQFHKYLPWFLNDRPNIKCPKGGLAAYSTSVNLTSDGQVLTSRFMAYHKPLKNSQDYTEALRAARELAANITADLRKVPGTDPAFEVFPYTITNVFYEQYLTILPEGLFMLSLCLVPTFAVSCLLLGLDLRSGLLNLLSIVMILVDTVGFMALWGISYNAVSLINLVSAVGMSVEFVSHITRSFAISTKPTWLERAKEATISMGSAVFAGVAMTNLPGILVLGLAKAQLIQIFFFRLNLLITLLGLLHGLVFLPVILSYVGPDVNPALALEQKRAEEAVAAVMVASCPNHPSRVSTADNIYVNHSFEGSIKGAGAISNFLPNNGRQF

For the molecule `O=C1[C@H](CC[C@H](O)c2ccc(F)cc2)[C@@H](c2ccc(O)cc2)N1c1ccc(F)cc1` [ezetimibe], the pIC50 in assay [1] was 6.46.

In assay [2], `C[C@H]1COC2=C1C(=O)C(=O)c1c2ccc2c1CCCC2(C)C` [F1-1, cryptotanshinone] had a negative-log IC50 (pIC50) of 4.91.

By pIC50 is commonly meant −log10 of the IC50, conventionally taken in molar units.
